# Laboratory results reported in ChEMBL document CHEMBL1629589, “Activity of the oral neuraminidase inhibitor A-322278 against the oseltamivir-resistant H274Y (A/H1N1) influenza virus mutant in mice” (2009).
# How the values were obtained:
# Assay type in all cases: functional
# [1] = test system: Influenza A virus; experiment: Antiviral activity against recombinant Influenza A virus (A/WSN/1933(H1N1)) H274Y mutant infected in BALB/c mouse assessed as mortality rate at 1 mg/kg, po administered 48 hrs postinfection for 5 days measured on day 5 (reference value: 100 %)
# [2] = test system: Influenza A virus; experiment: Antiviral activity against recombinant Influenza A virus (A/WSN/1933(H1N1)) H274Y mutant infected in BALB/c mouse assessed as lung viral titer at 1 mg/kg, po administered 4 hrs before infection for 5 days measured on day 4 (reference value: 1 x 10^6 +/- 0.3 x 10^6 PFU)
# [3] = test system: Influenza A virus; experiment: Antiviral activity against recombinant Influenza A virus (A/WSN/1933(H1N1)) H274Y mutant infected in BALB/c mouse assessed as lung viral titer at 1 mg/kg, po administered 48 hrs postinfection for 5 days measured on day 4 (reference value: 1 x 10^6 +/- 0.3 x 10^6 PFU)
# [4] = test system: Influenza A virus; experiment: Antiviral activity against recombinant Influenza A virus (A/WSN/1933(H1N1)) H274Y mutant infected in BALB/c mouse assessed as mortality rate at 10 mg/kg, po administered 48 hrs postinfection for 5 days measured on day 5 (reference value: 100 %)
# [5] = test system: Influenza A virus; experiment: Antiviral activity against recombinant Influenza A virus (A/WSN/1933(H1N1)) H274Y mutant infected in BALB/c mouse assessed as time to death at 10 mg/kg, po administered 48 hrs postinfection for 5 days (reference value: 5.1 days)
# [6] = test system: Influenza A virus; experiment: Antiviral activity against recombinant Influenza A virus (A/WSN/1933(H1N1)) H274Y mutant infected in BALB/c mouse assessed as lung viral titer at 10 mg/kg, po administered 48 hrs postinfection for 5 days measured on day 4 (reference value: 1 x 10^6 +/- 0.3 x 10^6 PFU)
# [7] = test system: Influenza A virus; experiment: Antiviral activity against recombinant Influenza A virus (A/WSN/1933(H1N1)) H274Y mutant infected in BALB/c mouse assessed as mortality rate at 1 mg/kg, po administered 4 hrs before infection for 5 days measured on day 5 (reference value: 100 %)
# [8] = test system: Influenza A virus; experiment: Antiviral activity against recombinant Influenza A virus (A/WSN/1933(H1N1)) H274Y mutant infected in BALB/c mouse assessed as reduction in body weight at 10 mg/kg, po administered 48 hrs postinfection for 5 days measured on day 5 (reference value: 22.2 %); parameters: scale not given: the % may be the effect or the level left
# [9] = test system: Influenza A virus; experiment: Antiviral activity against recombinant Influenza A virus (A/WSN/1933(H1N1)) H274Y mutant infected in BALB/c mouse assessed as time to death at 1 mg/kg, po administered 4 hrs before infection on day 5 (reference value: 5.1 days)
# [10] = test system: Influenza A virus; experiment: Antiviral activity against recombinant Influenza A virus (A/WSN/1933(H1N1)) H274Y mutant infected in BALB/c mouse assessed as reduction in body weight at 1 mg/kg, po administered 48 hrs postinfection for 5 days measured on day 5 (reference value: 22.2 %); parameters: scale not given: the % may be the effect or the level left
# [11] = test system: Influenza A virus; experiment: Antiviral activity against recombinant Influenza A virus (A/WSN/1933(H1N1)) H274Y mutant infected in BALB/c mouse assessed as reduction in body weight at 1 mg/kg, po administered 4 hrs before infection for 5 days measured on day 5 (reference value: 22.2 %); parameters: scale not given: the % may be the effect or the level left
# [12] = test system: Influenza A virus; experiment: Antiviral activity against recombinant Influenza A virus (A/WSN/1933(H1N1)) H274Y mutant infected in BALB/c mouse assessed as time to death at 1 mg/kg, po administered 48 hrs postinfection for 5 days (reference value: 5.1 days)
# [13] = test system: Influenza A virus; experiment: Antiviral activity against recombinant Influenza A virus (A/WSN/1933(H1N1)) H274Y mutant infected in BALB/c mouse assessed as mortality rate at 10 mg/kg, po administered 4 hrs before infection for 5 days measured on day 5 (reference value: 100 %)
# [14] = test system: Influenza A virus; experiment: Antiviral activity against recombinant Influenza A virus (A/WSN/1933(H1N1)) H274Y mutant infected in BALB/c mouse assessed as reduction in body weight at 10 mg/kg, po administered 4 hrs before infection for 5 days measured on day 5 (reference value: 22.2 %); parameters: scale not given: the % may be the effect or the level left
# [15] = test system: Influenza A virus; experiment: Antiviral activity against recombinant Influenza A virus (A/WSN/1933(H1N1)) H274Y mutant infected in BALB/c mouse assessed as lung viral titer at 10 mg/kg, po administered 4 hrs before infection for 5 days measured on day 4 (reference value: 1 x 10^6 +/- 0.3 x 10^6 PFU)
SMILES,Activity [1] [%],PFU [2],PFU [3],Activity [4] [%],Time [5] [days],PFU [6],Activity [7] [%],Activity [8] [%],Time [9] [days],Activity [10] [%],Activity [11] [%],Time [12] [days],Activity [13] [%],Activity [14] [%],PFU [15]
CCOC(=O)C1=C[C@@H](OC(CC)CC)[C@H](NC(C)=O)[C@@H](N)C1 [OSELTAMIVIR],100,190000,230000,75,5.2,13000,100,21.5,5.1,20.1,23.7,5,–,–,–
C/C=C\[C@@H]1C[C@H](C(=O)OC(C)C)N[C@H]1[C@@H](NC(C)=O)[C@](C)(CCC)OC,75,69000,83000,25,5.4,130000,0,15.6,5,19,10.8,–,0,5,35000
